The target of one assay is T1, HDAC11 (Homo sapiens, UniProt Q96DB2).
T1 construct: purchased BPS Biosciences
T1 sequence (Q96DB2 1-347): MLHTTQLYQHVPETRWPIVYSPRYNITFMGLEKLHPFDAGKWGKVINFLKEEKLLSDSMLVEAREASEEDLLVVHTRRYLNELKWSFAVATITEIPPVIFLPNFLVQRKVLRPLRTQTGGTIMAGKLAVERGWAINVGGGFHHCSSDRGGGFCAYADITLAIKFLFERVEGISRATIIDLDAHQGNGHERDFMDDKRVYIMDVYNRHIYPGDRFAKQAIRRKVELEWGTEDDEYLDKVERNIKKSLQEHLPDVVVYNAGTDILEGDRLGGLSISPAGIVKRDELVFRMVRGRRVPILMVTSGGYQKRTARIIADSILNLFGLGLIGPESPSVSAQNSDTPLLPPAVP
Put plainly: Individualized HDAC assay, HDAC11 (HDAC-Glo). The format is biochemical. To be noted: purified enzyme, 5 to 0.02 μM. On the procedure: The activity of the curcuphenol analogues was assessed with purified HDAC enzymes from all classes I, II, and IV, as well as a select member of HDAC class III (SIRT1). HDACs 1-9 and SIRT1 were evaluated using HDAC Fluorogenic Assay Kits (BPS Biosciences). All assays were completed in black-sided clear-bottom 96 well plates (PerkinElmer), and all treatments were plated in triplicates. Treatment started at 5 μM and was two-fold diluted to a concentration 0.02 μM. The assays were measured using the Synergy HI hybrid reader (BioTek) and Gen5 software (BioTek), excitation was set to 360 nm and detection was measured at 450 nm with a gain of 100. Alternatively HDAC 10 and 11 (BPS Biosciences) were optimized for HDAC concentration using the HDAC-Glo™ I/II Assay and Screening System (Promega). Following optimization each HDAC was run following the Promega protocol in black-sided clear-bottomed 96 well plates in triplicates with same treatments listed above (PerkinElmer). Luminescence was read 30 minutes after HDAC-Glo™I/II reagent was added using the Synergy HI hybrid reader (BioTek) and Gen5 software (Bio-Tek). […] To calculate percent activity, the average of blank wells was subtracted from all treatment groups. The relative mean of activity of the HDAC being measured was determined and all wells that received treatment were divided this average, to give a percentage of activity.
To evaluate the effect of the compounds on specific HDACs, their activity was assessed with purified HDAC enzymes from all classes I, II, and IV, as well as a select member of HDAC class III (SIRT1). HDACs 1-9 and SIRT1 were evaluated using HDAC Fluorogenic Assay Kits (BPS Biosciences) following the manufacturer's recommendations. Compound treatment started at 5 μM and was two-fold diluted to a concentration 0.02 μM. […] The assays were measured using the Synergy HI hybrid reader (BioTek) and Gen5 software (Bio-Tek). […] To calculate the fold change in HDAC activity, the values from each treated well were divided by the relative mean of activity of the specific HDAC being measured.

The subject of a further assay is CD4+ and CD8+ T cells. Description: Analysis of tumour-infiltrating lymphocytes. The class given is in vivo, C57BL/6 mice. To be noted: after 12 days of treatment, flow cytometry. On the procedure:
The metastatic cell line, A9, was grown in the DMEM, as previously described without, the addition of antibiotics (penicillin and streptomycin, P/S). Once cells reached 75-80% confluence, they were trypsinized (0.05%, Gibco) and washed with HBSS (Hanks balanced salt solution). The cells were counted using the Bio-RAD TC20 automated cell counter and suspended to a concentration of […] in HBSS. Thirty-two synergistic female C57BL/6 mice, between the ages 6-8 weeks, were subcutaneously injected in the right flank with 50 μL containing 5×10^4 A9 metastatic tumour cells. Seven days following tumour inoculation i.p. treatment began daily for 12 days. Four treatment groups were studied, with eight animals per group. […] Body weights were measured three times a week and once tumours developed they were measured with calipers and tumour volume was calculated. Twelve days after starting treatment, mice were euthanized and tumours were collected and weighed. The tumours were then processed for flow cytometry analysis. Tumours were cut into small pieces and incubated RPMI (Gibco; with P/S 0.5%, Sodium pyruvate 1%, and L-glutamine 1%) and 3 mg/mL collagenase A (Roche) for one hour at 37° C. with shaking. Dissociated tumour cells were passed through a 100 μm filter and spun down at 15,000×RCF for 3 minutes. The pellet was washed once in FACs buffer (2% FBS in PBS) and spun down. The pellet was next suspended in red blood cell (RBC) lysis buffer and kept at room temperature for 5 minutes before being neutralized by the addition of 5 ml of PBS and spun down. If pellets were still found to contain RBCs this step was repeated. Once all RBCs were removed cells were suspended in FACs buffer to a concentration of 10^7 cells/mL. A total volume of 200 ul of cells from each tumour were added to a 96 well plate (Falcon) and incubated with Fc Blocker (Biolegend, 1:400) for twenty minutes at 4° C. The 96 well plate was spun down at 1,200 rmp for three minutes and supernatant was removed. The cells were then suspended in 150 ul of FACs buffer containing anti-CD8a (PE-Cy7, 1:200, eBioscience) and CD4 (APC, 1:200, Biolegend) antibodies and incubated at 4° Celsius for 20 minutes. The cells were washed twice and spun down using FACs buffer before being to flow cytometry tubes in a final volume of 200 ul of FACs buffer containing 7AAD (Biolegend 1:200). Flow cytometry was performed on LSRII (BDBiosciences) and analysis was done using FlowJo (Flow cytometry Analysis Software).
Analysis of tumour-infiltrating lymphocytes (TILs). Tumour-infiltrating T lymphocyte (either CD4^+ or CD8^+ T cells) infiltration was evaluated in tumours of mice following 2-week treatment with either compounds or controls. Tumours at the site of initial injection were removed from tumour-bearing mice. Following tumour dissociation in the presence of collagenase A (Roche) and erythrocyte lysis, the tumour cells were then washed and prepared as single-cell suspensions to detect TILs. Before staining with antibodies, the cells were incubated with Fc Blocker (Ebiosciences) for 20 minutes at 4° C. The tumour cells were then washed and stained with anti-CD4-APC (Biolegend), anti-CD8-PECy7 (eBiosciences) and 7-AAD (Biolegend) viability stain. Using flow cytometry, 7-AAD positive dead cells were gated out and the remaining population was assessed for CD4^+ and CD8^+ expression. Data were acquired using a BD™ LSR II flow cytometer (BD Biosciences) with FACSDiva™ software and analyzed with FlowJo software (Treestar).

The target of the next assay is T2, HDAC3 (Homo sapiens, UniProt O15379).
T2 construct: purchased BPS Biosciences
Put plainly: Individualized HDAC assay, HDAC3. The class given is biochemical. To be noted: purified enzyme, 5 to 0.02 μM. On the procedure:
The activity of the curcuphenol analogues was assessed with purified HDAC enzymes from all classes I, II, and IV, as well as a select member of HDAC class III (SIRT1). HDACs 1-9 and SIRT1 were evaluated using HDAC Fluorogenic Assay Kits (BPS Biosciences). All assays were completed in black-sided clear-bottom 96 well plates (PerkinElmer), and all treatments were plated in triplicates. Treatment started at 5 μM and was two-fold diluted to a concentration 0.02 μM. The assays were measured using the Synergy HI hybrid reader (BioTek) and Gen5 software (BioTek), excitation was set to 360 nm and detection was measured at 450 nm with a gain of 100. […] Luminescence was read 30 minutes after HDAC-Glo™I/II reagent was added using the Synergy HI hybrid reader (BioTek) and Gen5 software (Bio-Tek). […] The relative mean of activity of the HDAC being measured was determined and all wells that received treatment were divided this average, to give a percentage of activity.
To evaluate the effect of the compounds on specific HDACs, their activity was assessed with purified HDAC enzymes from all classes I, II, and IV, as well as a select member of HDAC class III (SIRT1). HDACs 1-9 and SIRT1 were evaluated using HDAC Fluorogenic Assay Kits (BPS Biosciences) following the manufacturer's recommendations. […] The assays were measured using the Synergy HI hybrid reader (BioTek) and Gen5 software (Bio-Tek). […]

Entries after “also recorded” stand apart in the source; their conditions may differ.

T2 sequence (O15379 whole entry): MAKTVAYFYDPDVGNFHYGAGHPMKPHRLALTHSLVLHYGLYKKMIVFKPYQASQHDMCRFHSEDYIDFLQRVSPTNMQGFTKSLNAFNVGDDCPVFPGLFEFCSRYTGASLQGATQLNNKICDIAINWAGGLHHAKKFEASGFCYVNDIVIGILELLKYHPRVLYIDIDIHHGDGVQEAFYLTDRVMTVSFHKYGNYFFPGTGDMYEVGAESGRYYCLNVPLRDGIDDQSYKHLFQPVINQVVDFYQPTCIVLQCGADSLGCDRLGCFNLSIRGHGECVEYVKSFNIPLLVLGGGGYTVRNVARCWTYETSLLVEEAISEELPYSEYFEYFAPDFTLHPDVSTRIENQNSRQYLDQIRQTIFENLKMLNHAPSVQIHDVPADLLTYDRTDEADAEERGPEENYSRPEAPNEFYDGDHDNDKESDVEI
T2 sequence (Q9Y618 395-489 partner limits assumed): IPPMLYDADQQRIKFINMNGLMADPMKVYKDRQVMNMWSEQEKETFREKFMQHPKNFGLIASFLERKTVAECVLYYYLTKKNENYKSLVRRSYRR

In the case of `CC(C)=CCCCc1ccc(C)cc1O` [P02-113], the HDAC11 activity entry on HDAC11 was “unaffected; also recorded: no effect was observed; also recorded: no change in activity”. Besides, in the assay with CD4+ and CD8+ T cells, the “CD4+ T cell infiltration of tumours” value is on record as “no significant infiltration or difference; also recorded: did not appear to increase” and the “CD8+ T cell (CTL) infiltration of tumours” value is “no significant change in CTL infiltration”. Besides, the HDAC3 activity entry on HDAC3 is on record as “no significant change in HDAC activity”.

In the case of `COc1ccc(C(C)CCC=C(C)C)c(O)c1` (stereo not drawn) [P03-97-1], the HDAC11 activity entry on HDAC11 is “unaffected; also recorded: no change in activity”. Moreover, the HDAC11 activity result on HDAC11 (listed as PO-3-97-1) is listed as “no effect was observed”. Further, in the assay with CD4+ and CD8+ T cells, the “CD4+ T cell infiltration of tumours” value is recorded as “no significant infiltration or difference; also recorded: did not appear to increase” and the “CD8+ T cell (CTL) infiltration of tumours” value is “greatest CD8+ infiltration; also recorded: increase in the CTL infiltration”. In addition, the HDAC3 activity result on HDAC3 was “no significant change in HDAC activity”.

Values taken from patent US20220105051A1, “COMPOUNDS FOR INCREASING MHC-I EXPRESSION AND MODULATING HISTONE DEACETYLASE ACTIVITY” (Cava Healthcare Inc., priority 2019, published 2022).
